From patent US20250332183A1, “COMPOSITIONS AND METHODS FOR THE STIMULATION OF INTERMEDIATE MACROPHAGES AND TREATMENTS THEREWITH” (priority 2024, published 2025)
Entries after “also recorded” stand apart in the source; their conditions may differ.

Tests used:
[1] = test system: preterm lamb model of BPD; assay: Respiratory gas exchange / oxygenation and ventilation indices in ventilated preterm lambs; assay type: in vivo
Description: For dose-optimization, preterm (PT) lambs were delivered at ˜128d (d; saccular stage of lung development; ˜85% gestation) after maternal antenatal steroids exposure. […] After delivery and surfactant administration, PT lambs were maintained on invasive mechanical ventilation (IMV) for 7d followed by 3d noninvasive respiratory support. For the early-stage study, outcomes were determined for PT lambs over DOL1-10. For the late-stage study, outcomes were determined for former preterm (FPT) lambs (vehicle, AVR-48 treated) that were weaned from respiratory support after 10d and were maintained in the lamb intensive care unit for a further 80d. Outcomes included functional, structural, molecular, and neurobehavioral assessments. Term reference lambs that were never ventilated were used as developmental references for the FPT lambs.
Arterial blood gases were obtained starting at 15 min of postnatal life and taken every 15 min for the first 90 min of postnatal life. FiO2 was decreased to attain a target oxygenation of O2 saturation 88-94% by pulse oximetry (Model SurgiVet V9200IBP/Temp, Smith Medical ASD, Inc., St. Paul, MN). PIP was adjusted to attain a target PaCO2 between 45 and 60 mmHg. The resultant pH range was between 7.25-7.35.
Study design. A randomized, blinded, placebo-controlled study design was used for both endpoints. For each endpoint study, one group of PT lambs was treated with vehicle (saline, intravenously, iv, over about 10 min) for 7d and thus served as control. Another group of PT lambs was treated iv with AVR-48 for 7d. Either treatment was started at 6 h of postnatal life to allow the PT lambs to stabilize after Cesarean-section delivery and resuscitation physiologically and to permit initiation of ventilator-induced lung injury. The inventors relied on visual identification of biological sex at the time of delivery in the absence of an ultrasound unit in the lamb intensive care unit. The inventors tracked sex as a biological variable, but the study could not assess differences in outcomes based on sex because of small sample sizes.

[2] = test system: preterm lamb model of BPD; assay: Lung histopathology and quantitative histology of lamb lungs; assay type: in vivo; conditions: for radial alveolar count (RAC) / distal airspace wall thickness / secondary septal volume density: vs vehicle
Description: Terminal tissue collection. The inventors followed the methods the developed for terminal tissue collection.^14,17,26-28 Briefly, at the end of the early-stage study (DOL10) or late-stage study (DOL90 for FPT lambs; DOL60 for term reference lambs), the lambs were given ketamine (10-20 mg/Kg, intramuscularly) followed by face mask inhalation anesthesia with 1.0-2.5% isoflurane with O2. Lambs were intubated and ventilated with a tidal volume of 5-7 mL/kg, and given heparin (1000 U, iv). The lambs were given Beuthanasia solution (0.25 mL/Kg, iv; Intervet Inc., Madison, NJ) followed by potassium chloride (10 mEq, iv; Hospira, Lake Forest, IL).
For morphological analyses, the entire left lung was insufflated with formalin and sampled by systematic, uniform, random methods for quantitative histology.^29 Morphometric and stereologic methods quantified radial alveolar count, secondary septal volume density, and thickness of distal airspace walls.^27 Alveolar capillary growth was quantified by a combination of immunohistochemistry to identify endothelial cells in lung tissue sections and quantitative histology.^27 For capillary surface density measurement, a recombinant anti-CD-34 antibody was used (ab81289, Abcam; Waltham, MA) for the capillary endothelial cell marker. Negative immunostain controls were omission of the primary antibody, omission of the secondary antibody, and substitution of the primary antibody with a species-matched, irrelevant antibody. Epithelium lining the air spaces was counterstained blue. The inventors used a computer-assisted true-color imaging system (Bioquant Life Science, Nashville, TN) to quantify the surface density of alveolar capillaries and the overlying epithelium.

[3] = Clinical biochemistry and physiological parameters of treated lambs; assay type: in vivo, lamb
Description: Arterial blood and free-fall urine samples were collected every 24 h and analyzed for indicators of liver and kidney function (Associated Regional and University Pathologists (ARUP) Laboratories, Salt Lake City).
Clinical biochemistry. Plasma and urine samples were analyzed by Associated Regional and University Pathologists (ARUP) at the University of Utah. Plasma renal function parameters are urea nitrogen and creatinine. Plasma hepatic function parameters are alkaline phosphatase, aspartate aminotransferase, alanine aminotransferase, total protein, albumin, bilirubin total, and direct bilirubin.
Physiological parameters for lambs in the early and late-stage studies. Physiology results were obtained including cardiovascular physiology, temperature, respiratory rates, indices for oxygenation, ventilation indices, plasma pH, bicarbonate, base excess, plasma electrolytes, plasma glucose, hematocrit (Hct), total serum protein (Tsp), lactate, enteral feeding, milk residual, and hematology for early and late-stage studies.

[4] = target: T1, CD163 scavenger receptor (Homo sapiens, UniProt Q86VB7); assay: Binding of AVR-48 to CBMC monocytes and lymphocytes by flow cytometry
T1 construct: endogenous in cells; host or cells: human cord blood mononuclear cells (monocytes and lymphocytes)
T1 sequence (Q86VB7 42-1156): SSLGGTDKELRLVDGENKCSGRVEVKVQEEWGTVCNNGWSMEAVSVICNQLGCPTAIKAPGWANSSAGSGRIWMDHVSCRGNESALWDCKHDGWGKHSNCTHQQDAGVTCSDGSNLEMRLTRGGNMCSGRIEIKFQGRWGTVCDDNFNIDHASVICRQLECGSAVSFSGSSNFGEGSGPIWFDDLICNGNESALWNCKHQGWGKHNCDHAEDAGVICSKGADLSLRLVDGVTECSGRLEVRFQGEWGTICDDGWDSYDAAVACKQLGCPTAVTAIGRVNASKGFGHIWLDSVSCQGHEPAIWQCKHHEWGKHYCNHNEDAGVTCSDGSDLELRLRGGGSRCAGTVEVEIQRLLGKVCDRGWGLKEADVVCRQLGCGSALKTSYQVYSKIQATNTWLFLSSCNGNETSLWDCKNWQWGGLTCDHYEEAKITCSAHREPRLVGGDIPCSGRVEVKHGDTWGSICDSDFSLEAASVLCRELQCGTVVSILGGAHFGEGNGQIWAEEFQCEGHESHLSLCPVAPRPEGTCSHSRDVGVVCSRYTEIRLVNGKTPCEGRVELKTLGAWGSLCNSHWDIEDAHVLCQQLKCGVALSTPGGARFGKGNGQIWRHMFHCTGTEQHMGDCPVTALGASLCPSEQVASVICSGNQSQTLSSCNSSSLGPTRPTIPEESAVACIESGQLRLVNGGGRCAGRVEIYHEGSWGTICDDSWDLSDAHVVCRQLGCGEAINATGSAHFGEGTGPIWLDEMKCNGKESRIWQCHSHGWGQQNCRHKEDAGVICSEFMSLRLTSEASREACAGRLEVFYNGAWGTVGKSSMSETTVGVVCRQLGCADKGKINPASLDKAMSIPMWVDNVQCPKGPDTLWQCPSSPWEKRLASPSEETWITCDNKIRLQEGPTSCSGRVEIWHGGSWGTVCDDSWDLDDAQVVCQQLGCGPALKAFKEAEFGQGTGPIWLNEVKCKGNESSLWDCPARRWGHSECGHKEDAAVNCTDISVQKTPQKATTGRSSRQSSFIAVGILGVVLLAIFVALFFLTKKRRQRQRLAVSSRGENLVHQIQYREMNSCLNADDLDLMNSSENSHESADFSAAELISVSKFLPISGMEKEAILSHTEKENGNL
Source text: N=3 *p≤0.05, **p≤0.01, ***p≤0.001, **** p≤0.0001. Two-way ANOVA was used for statistical analysis.

[5] = test system: hPBMCs; assay: hPBMCs treated 7 days with AVR-48, LPS, MPLA, Influenza-A peptides, flow cytometry; assay type: cell-based, human
[6] = test system: mice; assay: Mouse model of influenza peptide vaccination; assay type: in vivo; conditions: AVR-48 alone or with Flu-A peptide, vs MPLA
Description: Study design: N=4/per group ([…], 6-7 months old). Group-1: (FluA) 1st dose; No 2nd dose; Group-2: (FluA) 1st dose; (FluA+MPLA) 2nd dose; Group 3: AVR-48 1st dose; No 2nd dose; and Group 4: Flu-A 1st dose; Flu-A+AVR-48 2nd dose.
Outcome measures: immune cell quantification (FACS) in the spleen, and IgG in serum (ELISA).
In vivo study: In one study, C57Bl/6J mice (n=4/group) were dosed intramuscularly (IM) with either complete Freund's adjuvant (CFA) or incomplete Freund's adjuvant (IFA) along with AVR-48 for a 28-day study using a prime-boost-boost regimen. In the second study, mice were dosed with MPLA and Flu-peptide using only the priming dose regimen (no booster). Splenic immune cells and plasma immunoglobin concentrations were assessed at day 28.

[7] = early-stage study DOL 1-7, vs vehicle
[8] = early-stage study, PT lambs, 3.0 mg/kg, vs vehicle

SMILES: CC(=O)NC1C(Oc2ccc([N+](=O)[O-])cc2)OC(CO)C(O)C1O (stereo not drawn) [AVR-48]
- BPD-like symptoms ([1]; 10d period, dose escalation 0.1-9.0 mg/kg/dose): diminished in a dose-related manner
- respiratory severity score (RSS) ([1]; early-stage pilot, PT lambs, 1.0 mg/kg iv every 12 h): improved moderately
- FiO2 and PaO2 [1, 7]: No statistical difference
- PIP and PaCO2 [1, 7]: No statistical difference
- respiratory severity score (RSS) ([1]; early-stage study, PT lambs, 3.0 mg/kg iv every 12 h, vs vehicle, 3 mg/kg): Significant improvements; also recorded: significantly improved
- Alveolar-arterial (A-a) gradient [1, 8]: significantly improved
- SpO2/FiO2 (SF) ratio [1, 8]: significantly improved
- oxygenation index [1, 8]: significantly improved
- radial alveolar count (RAC) ([2]; 10d, PT lambs, 3.0 mg/kg): significant increase
- distal airspace wall thickness ([2]; 10d, PT lambs): significantly thinner
- secondary septal volume density ([2]; 10d, PT lambs): significantly higher
- radial alveolar count (RAC) ([2]; 90d, FPT lambs, 3.0 mg/kg): significant increase
- distal airspace wall thickness ([2]; 90d, FPT lambs): thinner (but not statistically different)
- secondary septal volume density ([2]; 90d, FPT lambs): higher in the AVR-48 lambs (but not statistically different)
- development of terminal respiratory units (TRUs) ([2]; early-stage and late-stage studies, 3.0 mg/kg): significantly better development
- clinical parameters (plasma renal and hepatic function) ([3]; AVR-48 treated lambs): within the normal range
- physiological outcomes (cardiovascular, temperature, respiratory rates, plasma chemistry, feeding, hematology) ([3]; early and late-stage studies): no adverse effect
- Hematology [3, 7]: No statistical difference
- plasma glucose, Hct, Tsp, and lactate [3, 7]: No statistical difference
- plasma pH, bicarbonate, and BE [3, 7]: No statistical difference
- temperature or respiratory rate [3, 7]: No statistical difference
- systolic blood pressure ([3]; early-stage study, DOL 6, vs vehicle, not observed on any other days): higher systolic blood pressure
- volume of tolerable enteral feeding and residual in the stomach ([3]; in vivo): No statistical difference
- binding to CD163 scavenger receptor [4]: exhibits a binding affinity
- TEMRE effector T-cell production ([5]; compared to MPLA): stimulated more
- CD8+ IFN-g+ T-memory and helper cell recruitment ([5]; in the presence of influenza-A peptide): perturbated
- CD4+ T-cells production ([5]; vs MPLA): outperformed MPLA
- CD27− T-cells production ([5]; vs MPLA): outperformed MPLA
- CD4+ T-helper cells in mouse spleen [6]: increased
- CD8+ T cells in mouse spleen [6]: increased
- CD19+ B cells in mouse spleen [6]: increased
- CD38+/CD27+ plasma blasts in mouse spleen [6]: increased
- IgG in mouse serum [6]: increased
